Legend:
[1] = test system: secretion of gastric juice; test: Inhibition of gastric juice secretion, pyloric ligation (method of Shay et al.); type: in vivo, Wistar male rats; conditions: 25 mg/kg, i.p., 4 hours after pyloric ligation; for Total Peptic Activity: casein as substrate; for Total Acid Output: titration with 0.02N NaOH
Experimental: The activity of each of the test compounds in inhibiting the secretion of gastric juice was measured by pyloric ligation in accordance with the method of Shay et al. described in H. Shay, S.A. Komarov, S.S. Fels et al.; Gastroenterology, 5, 43 (1945). Groups each consisting of 8 - 10 Wistar male rats weighing 150 - 200 g which had been starved for 48 hours were subjected to abdominal incision under ether anesthetization. After pyloric ligation, the incised abdomen of each animal was closed and the animal was kept away from food and water for 4 hours. The test compound was suspended in 5% gum arabic (in physiological saline) to give a concentration of 5 mg/ml, and the suspension was administered intraperitoneally to each rat in a dose of 25 mg/kg immediately after the closure of the incised abdomen. Four hours later, each rat was sacrificed with chloroform and the stomach was extracted. The gastric juice contained in the stomach was withdrawn and checked for its volume, total acidity and total pepsin activity.
The total acidity was determined by titration with 0.02N NaOH using phenolphthalein as an indicator. The total pepsin activity was determined in accordance with the method of Anson; Brit. J. Pharmacol., 13, 54 (1958) using casein as a substrate.

Aspirin ulcers = test: Aspirin ulcer; type: in vivo, Wistar male rats; conditions: 20 mg/kg intraperitoneally, 7 hours; for Ulcer index: aspirin 150 mg/kg orally, total length of ulcers
Experimental: Aspirin ulcers were produced in Wistar male rats (body weight: 150 - 200 g) in accordance with the method described in S. Okabe, K. Takeuchi et al.; Jpn. J. Pharmacol., 24, 363 (1974).
The rats were starved for 24 hours and subjected to pyloric ligation. Immediately thereafter, 150 mg/kg of aspirin suspended in 5% gum arabic was administrered orally to each rat which was simultaneously injected with a selected test compound (20 mg/kg) intraperitoneally.
The rats were kept away from food and water for 7 hours. Thereafter, the stomach was extracted from each animal under ether anesthetization and fixed in formalin. The total length of the ulcers occurring in the glands of the extracted stomach was measured and used as an ulcer index.

HCl-ethanol ulcers = test: HCl-ethanol ulcer; type: in vivo, Wistar male rats; conditions: for Percent inhibition: 20 mg/kg intraperitoneally; for Ulcer index: 20 mg/kg intraperitoneally 2 hours before 1.5 ml of 15 mM HCl in 60% ethanol orally, 1 hour
Experimental: HCl-ethanol ulcers were induced in Wistar male rats in accordance with the method described in S. Okabe, S. Ueki et al.; Oyo Yakuri, 27, 829 (1984).
The procedures of (2) were repeated except that 2 hours after the intraperitoneal injection of a selected test compound, 1.5 ml of 15 mM HC1 in 60% ethanol was administrered orally to each rat, which thereafter was kept for an additional 1 hour.

Stress ulcers = test: Stress ulcer (restraint and water immersion); type: in vivo, Wistar male rats; conditions: 20 mg/kg intraperitoneally; for Ulcer index: restrained and immersed in water (22 ± 1°C) for 7 hours
Experimental: Stress ulcers were induced in Wistar male rats in accordance with the method described in K. Takagi and S. Okabe; Jpn. J. Pharmacol., 18, 9 (1968).
The procedures of (2) were repeated except that the rats were restrained immediately after the administration of a selected test compound and immersed in water (22 ± 1°C) for 7 hours.

carrageenan paw edema = test: Anti-inflammatory activity, carrageenan paw edema method; type: in vivo, SD male rats; conditions: 25 mg/kg, i.p., 30 minutes before carrageenan; four hours after injection
Experimental: SD male rats (body weight: 150 - 180 g) were starved overnight and 25 mg/kg of a selected test compound was administered intraperitoneally to each rat. Thirty minutes later, 0.1 ml of a 1.5% solution of carrageenan in physiological saline was injected under the skin of the paw of a hind leg. Four hours after injection, the volume of the treated leg was measured with a mercury manometer and compared with the value prior to carrageenan injection in order to calculate the percentages of edema and its inhibition. Each of the test compounds was administered in a concentration of 5 mg/ml as a suspension in 5% gum arabic in physiological saline.

granuloma pouch = test: Anti-inflammatory activity, granuloma pouch method; type: in vivo, SD male rats; conditions: 25 mg/kg/day orally for 8 consecutive days, eight days after croton oil injection; for Weight of Pouch: wet weight
Experimental: Pouches were made under the dorsal skin of SD male rats (body weight: 150 - 180 g) by injecting 20 ml of N2 gas in accordance with the method described in E. Itoga and Y. Miyake; Oyo yakuri, 66, 316 (1970). The rats were subsequently injected with 1 ml of 1% croton oil dissolved in cottonseed oil. Eight days after injection, the wet weight of each pouch and the volume of exudate therefrom were measured. Each of the test compounds was administered orally for 8 consecutive days on a single-dose-a-day basis..

Acetic acid ulcers = test: Acetic acid ulcer; type: in vivo, Wistar male rats; conditions: 14 consecutive days
Experimental: .Acetic acid ulcers were induced in Wistar male rats in accordance with the method described in K. Takagi, S. Okabe et al.,; Jpn. J. Pharmacol., 19, 418 (1969).
Starting on the day of operation, each of the test compounds was administered orally to each rat for 14 consecutive days on a two-dose-a-day basis. The rats were starved for 24 hours after administration of the final dose. They then were sacrificed with chloroform and the stomach was extracted from each animal and fixed in formalin. The product of the length and breadth of each […] was determined and used as an ulcer index.

CCCCCCCCC=CC(=O)O [2-Undecenoic acid, reference compound]
Gastric Volume [1]: 2.46 ml/100 g wt. | Total Peptic Activity [1]: 159.8 mg as tyrosine/ 100 g wt. | Total Acid Output [1]: 318.1 μ Eq/100 g wt.

CCCCCCCCC=CC(=O)NCCSSCCNC(=O)C=CCCCCCCCC [Compound 1, [SCH2CH2NH-COCH=CH(CH2)7CH3]2]
Gastric Volume [1]: 2.10 ml/100 g wt. | Total Peptic Activity [1]: 139.9 mg as tyrosine/ 100 g wt. | Total Acid Output [1]: 229.2 μ Eq/100 g wt.

CCCCCCCCC=CC(=O)NCCSCC(N)=O [Compound 2, NH2COCH2SCH2CH2NH-COCH=CH(CH2)7CH3]
Gastric Volume [1]: 0.97 ml/100 g wt. | Total Peptic Activity [1]: 70.9 mg as tyrosine/ 100 g wt. | Total Acid Output [1]: 97.4 μ Eq/100 g wt. | Percent inhibition (Aspirin ulcers): 76.4% | Ulcer index (Aspirin ulcers): 4.0 | Percent inhibition (HCl-ethanol ulcers): 70.5% | Ulcer index (HCl-ethanol ulcers): 12.2 | Percent inhibition (Stress ulcers): 69.1% | Ulcer index (Stress ulcers): 9.0

CCCCCC=CC(=O)NCCSSCCNC(=O)C=CCCCCC [Compound 3, [SCH2CH2NH-COCH=CH(CH2)4CH3]2]
Percent inhibitaion (carrageenan paw edema): 29.7% | Percentage of edema (carrageenan paw edema): 36.3% | Volume of Exudate (granuloma pouch): 8.5 mL | Weight of Pouch (granuloma pouch): 4.34 g

CCCCCC=CC(=O)NCCSCC(N)=O [Compound 4, NH2COCH2SCH2CH2NH-COCH=CH(CH2)4CH3]
Percent inhibitaion (carrageenan paw edema): 45.2% | Percentage of edema (carrageenan paw edema): 28.3% | Volume of Exudate (granuloma pouch): 10.6 mL | Weight of Pouch (granuloma pouch): 3.81 g

CCCCCCCC=CC(=O)NCCSCC(N)=O [Compound 6, NH2COCH2SCH2CH2NH-COCH=CH(CH2)6CH3]
Gastric Volume [1]: 0.93 ml/100 g wt. | Total Peptic Activity [1]: 81.5 mg as tyrosine/ 100 g wt. | Total Acid Output [1]: 91.1 μ Eq/100 g wt. | Percent inhibition (Aspirin ulcers): 49.7% | Ulcer index (Aspirin ulcers): 8.6 | Percent inhibition (HCl-ethanol ulcers): 69.7% | Ulcer index (HCl-ethanol ulcers): 12.5 | Percent inhibition (Stress ulcers): 54.3% | Ulcer index (Stress ulcers): 13.3 | Percent healing (Acetic acid ulcers; 100 x 2 mg/kg/day orally): 21.0% | Ulcer index (Acetic acid ulcers; 100 x 2 mg/kg/day orally): 45.8 | Percent healing (Acetic acid ulcers; 200 x 2 mg/kg/day orally): 27.4% | Ulcer index (Acetic acid ulcers; 200 x 2 mg/kg/day orally): 42.1 | Percent healing (Acetic acid ulcers; 400 x 2 mg/kg/day orally): 34.0% | Ulcer index (Acetic acid ulcers; 400 x 2 mg/kg/day orally): 38.3

CCCCCCCCCCC=CC(=O)NCCSSCCNC(=O)C=CCCCCCCCCCC [Compound 7, [SCH2CH2NH-COCH=CH(CH2)9CH3]2]
Percent inhibitaion (carrageenan paw edema): 30.7% | Percentage of edema (carrageenan paw edema): 33.4%

CCCCCCCCCCC=CC(=O)NCCSCC(N)=O [Compound 8, NH2COCH2SCH2CH2NH-COCH=CH(CH2)9CH3]
Percent inhibitaion (carrageenan paw edema): 49.6% | Percentage of edema (carrageenan paw edema): 24.3%

— patent EP0195433A1, “Amide derivatives processes for preparing them and use thereof” (GREEN CROSS CORPORATION, priority 1985, dated 1986)
